# According to PubChem BioAssay (NCI):
#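 Tested at 5 concentrations; 48 h exposure; 96-well plates; endpoints linearly interpolated, else capped at highest concentration. At the GI50, growth is halved. TGI: total growth inhibition.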
# Columns and labels:
# Assay in all cases: NCI-60 cell line screen, 48 h
# RXF 393 renal = system: RXF 393 renal
# U251 CNS = system: U251 CNS
# SNB-75 CNS = system: SNB-75 CNS
# SK-MEL-2 melanoma = system: SK-MEL-2 melanoma
# SK-MEL-5 melanoma = system: SK-MEL-5 melanoma
# MALME-3M melanoma = system: MALME-3M melanoma
# A498 renal = system: A498 renal
# DMS 273 small cell lung = system: DMS 273 small cell lung
# LXFL 529 NSCLC = system: LXFL 529 NSCLC
# BT-549 breast = system: BT-549 breast
Compound,TGI (RXF 393 renal) [µM],TGI (U251 CNS) [µM],TGI (SNB-75 CNS) [µM],TGI (SK-MEL-2 melanoma) [µM],TGI (SK-MEL-5 melanoma) [µM],TGI (MALME-3M melanoma) [µM],TGI (A498 renal) [µM],TGI (DMS 273 small cell lung) [µM],TGI (LXFL 529 NSCLC) [µM],GI50 (RXF 393 renal) [µM],GI50 (U251 CNS) [µM],GI50 (SK-MEL-2 melanoma) [µM],GI50 (SK-MEL-5 melanoma) [µM],GI50 (MALME-3M melanoma) [µM],GI50 (A498 renal) [µM],GI50 (DMS 273 small cell lung) [µM],GI50 (SNB-75 CNS) [µM],GI50 (LXFL 529 NSCLC) [µM],GI50 (BT-549 breast) [µM],TGI (BT-549 breast) [µM]
CC(=O)O[C@H]1CC[C@@]2(C)C(=CC[C@H]3C(CC#N)[C@@](C)(C#N)CCC32)C1 (some centres undefined),> 100,> 100,> 100,> 100,> 100,> 100,> 100,> 100,> 100,,,,,,,,,,,
CCOC(=O)NC(=O)c1cn(C2CCCCC2)c(=O)n(C)c1=O,> 100,> 100,> 100,> 100,> 100,> 100,> 100,> 100,> 100,,,,,,,,,,,
CC(=O)OC1CC2C(C)(C)C(=O)C=C[C@]2(C)C2CCC3(C)C(c4ccoc4)C(=O)C4OC43[C@]12C (some centres undefined),,41.6,75.3,31.9,30,40.3,42.5,75.6,> 100,,,,,,,,,,,
Cn1cnc(SC2=CC(=O)C=C3S[C@H]4C[C@@]23c2c(c(O)c3c5c2=NCCC=5C=N3)N4)c1CC(N)C(=O)O (some centres undefined),23.8,32,34.5,24.7,27.6,5.04,32.7,20.3,,10.6,18.1,9.62,14.5,2.37,18.1,7.33,,,,
COC(=O)CCCCCOS(=O)(=O)c1ccc(C)cc1,> 100,> 100,> 100,> 100,> 100,> 100,> 100,> 100,> 100,,,,,,,,,,,
Nc1ccc(C(=O)CC2(O)C(=O)Nc3ccccc32)cc1 (centres undefined),> 100,,> 100,> 100,> 100,> 100,> 100,> 100,> 100,,,,,,,,,,,
COc1cccc(/C=C2\N=C(Cl)OC2=O)c1O,> 100,> 100,> 93.3,> 100,> 100,> 100,> 100,> 100,> 100,,,,,,,,,,,
CC1CCCc2c1n[nH]c2CC1CC(=O)NC(=O)C1 (centres undefined),> 100,> 100,> 100,,,> 100,> 100,> 100,> 100,,,,,,,,,,,
CCCC[C@H](CCc1ccccc1)N(C(=O)OC)N1CCC[C@H]1COC,32.9,29.1,79.1,34.1,32.9,32.1,34.6,35.6,39.6,,,,,,,,,,,
NC1=C(O)/C(=N/NS(=O)(=O)c2ccccc2)C(c2ccc3c(c2)OCO3)O1 (centres undefined),> 100,> 100,> 100,> 100,> 100,> 100,> 100,> 100,> 100,,,,,,,,,,,
O=[N+]([O-])c1cc(I)cc(/C=N/NS(=O)(=O)c2ccc(F)cc2)c1O,49.9,59.9,66.3,35.7,45.2,52.4,91.6,48.8,43.1,,,,,,,,,,,
C[N+]1(CCNP(=S)(NCC[N+]2(C)Cc3c(ccc4c3OCO4)C3C2c2cc4c(cc2C[C@@H]3O)OCO4)NCC[N+]2(C)Cc3c(ccc4c3OCO4)C3C2c2cc4c(cc2C[C@@H]3O)OCO4)Cc2c(ccc3c2OCO3)C2C1c1cc3c(cc1C[C@H]2O)OCO3 (some centres undefined),,,,< 0.00191,,,,< 0.00191,,1.76,1.99,,1.89,2.09,1.54,,1.18,2.75,,
CC1=NC(C)=C(/C(C)=N/NC(=O)c2ccccc2O)C(C)/C1=C(/C)NNC(=O)c1ccccc1O (centres undefined),26.2,> 100,93.6,,38.9,80.8,99.6,,> 100,,,,,,,,,,,
CCCCCCCCCCNC(=S)OC,> 100,> 100,> 100,,54.1,> 100,> 100,> 100,> 100,,,,,,,,,,,
CSc1nc2c(nc(N)n2C2OC(CO)C(O)C(O)C2O)c(=O)[nH]1 (centres undefined),> 100,> 100,> 100,,> 100,> 100,> 100,,> 100,,,,,,,,,,,
Clc1ccc(-c2nnc(-c3nn(-c4ccccc4)c4nc5ccccc5nc34)o2)cc1,> 100,> 100,> 100,> 100,32.3,> 100,,> 100,> 100,,,,,,,,,,,
COc1ccc(-c2c(NC(=O)Nc3ccc(Cl)c(C(F)(F)F)c3)cnn2-c2ccc(S(N)(=O)=O)cc2)cc1,9.83,12.3,13.3,5.52,3.85,7.72,8.29,,,2.6,3.3,2.42,1.9,2.51,2.84,,2.3,,1.81,4.4
Cn1nc(-c2ccccc2)c2c(/C=C/c3ccc(F)cc3)onc2c1=O,70.7,> 100,,,> 100,,,> 100,> 100,,,,,,,,,,,
C=C[C@@H]1CCC/C=C/[C@@H]2C[C@H](O)C[C@H]2[C@H](O)/C=C/C(=O)O1,0.68,> 100,> 100,8.53,0.331,1.06,0.763,,,0.247,0.941,0.832,0.175,0.274,0.261,,0.397,,0.543,> 37.1
NCCCNCc1c2ccccc2c(CNCCCN)c2ccccc12,35.7,> 100,44,28.2,66.6,24.2,76.8,,24.5,,,,,,,,,,,
FC(F)(F)c1cccc(Oc2ccc(Nc3ncnc4ccc(OCCCN5CCOCC5)cc34)cc2Cl)c1,4.03,4.19,7.33,6.1,3.15,3.07,12.8,,,1.76,1.9,2.54,1.75,1.6,2.37,,1.45,,3.09,16.7
C/C(=N\NC(=O)c1ccccc1O)c1c(O)cc(C)oc1=O,> 100,> 100,> 100,> 100,> 100,> 100,> 100,,> 100,,,,,,,,,,,
